Some test systems named below: SF-268; OVCAR-8; TK-10; A549; IGROV-1; HOP-62; NCI-H23; SN12C; U-251; OVCAR-5; SK-MEL-5; RXF 393; COLO 205; NCI-H226; ACHN; MDA-N; LOX IMVI; Hs-578T; MOLT-4; MCF7.
Experiment in all cases: DTP human tumour cell line panel, 48 h

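48-hour exposure; five concentrations; linearly interpolated endpoints. GI50: concentration for 50% inhibition of growth.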 Calls of active or inactive are those of the source. Cut-off read from the data, not from the text of the source: active = GI50 up to about 1.1 µM and inactive = higher.

Take `CCCCCCCCOCC1S(=O)(=O)OCCOS1(=O)=O`: the GI50 in the assay with SF-268, in the assay with OVCAR-8, in the assay with TK-10, with A549, with IGROV-1 and in the assay with HOP-62 was > 100 µM (inactive) throughout. For the same compound, the GI50 in the assay with NCI-H23, in the assay with SN12C, in the assay with U-251, in the assay on OVCAR-5, in the assay on SK-MEL-5 and in the assay with RXF 393 was > 100 µM (inactive) in each case. Further, the GI50 in the assay with COLO 205, in the assay on NCI-H226, with ACHN, in the assay with MDA-N, in the assay with LOX IMVI and in the assay on Hs-578T was > 100 µM (inactive) in each case. For the same compound, the GI50 with MOLT-4 is > 100 µM (inactive).

Turning to `O=C1CCCCC/C1=C\c1cccc(Cl)c1`, the GI50 in the assay with SF-268 is 22 µM (inactive); in the assay with A549, 63.2 µM (inactive); in the assay on IGROV-1, 46.2 µM (inactive); in the assay with HOP-62, > 100 µM (inactive); with NCI-H23, 42.9 µM (inactive); in the assay with SN12C it was 93.8 µM (inactive). Also, the GI50 with U-251 was 47.2 µM (inactive); in the assay with OVCAR-5, > 100 µM (inactive); in the assay on SK-MEL-5, 25.4 µM (inactive); in the assay with COLO 205 it was 35.3 µM (inactive); in the assay with NCI-H226 it was 34.4 µM (inactive); with ACHN, 28.2 µM (inactive). Moreover, the GI50 in the assay on MDA-N is 45.4 µM (inactive); in the assay with LOX IMVI, 41.5 µM (inactive); in the assay on Hs-578T, 35.9 µM (inactive); with MOLT-4, 27.4 µM (inactive).

Regarding `CCOC(=O)CCC(NC(=O)Cc1ccc(Nc2nc3cc(F)c(F)cc3nc2C(=O)OCC)cc1)C(=O)OCC` (centres undefined), the GI50 with SF-268 is 31.3 µM (inactive); with OVCAR-8 it was 94.2 µM (inactive); in the assay with MCF7, 88.7 µM (inactive); with TK-10, > 100 µM (inactive); with A549, > 100 µM (inactive); with HOP-62, > 100 µM (inactive). In addition, the GI50 in the assay on NCI-H23 was > 100 µM (inactive); with SN12C, 69.2 µM (inactive); in the assay with U-251, > 100 µM (inactive); in the assay on OVCAR-5 it was > 100 µM (inactive); in the assay on SK-MEL-5, > 100 µM (inactive); in the assay on COLO 205, > 100 µM (inactive). Moreover, the GI50 in the assay with NCI-H226 is > 100 µM (inactive); in the assay with ACHN, > 100 µM (inactive); in the assay on MDA-N, > 100 µM (inactive); in the assay on LOX IMVI, 44.4 µM (inactive); with Hs-578T it was 40.8 µM (inactive); in the assay with MOLT-4 it was 44.6 µM (inactive).

As to `COCC1OC(N2C(=O)NC(=O)[C@@H]3C=C4CCCCC4=C[C@@H]32)C(OC)C1OC` (some centres undefined), the GI50 in the assay on SF-268, in the assay with OVCAR-8, in the assay on MCF7, in the assay with TK-10, in the assay with A549 and with IGROV-1 was > 100 µM (inactive) each time. In addition, the GI50 in the assay on HOP-62, in the assay on SN12C, in the assay on U-251, in the assay with OVCAR-5, in the assay on NCI-H226 and with ACHN was > 100 µM (inactive) throughout. Moreover, the GI50 in the assay with MDA-N was > 100 µM (inactive); with LOX IMVI it was > 100 µM (inactive); with Hs-578T, 68.9 µM (inactive); in the assay on MOLT-4, > 100 µM (inactive).

Consider `CCSC1=N/C(=C\c2ccco2)C(Cl)=N1`, for which the GI50 in the assay on SF-268, in the assay with OVCAR-8, with MCF7, in the assay on TK-10, in the assay on A549 and in the assay with IGROV-1 was > 100 µM (inactive) throughout. The GI50 in the assay with HOP-62, with NCI-H23, in the assay on SN12C, in the assay on U-251, in the assay with OVCAR-5 and with SK-MEL-5 was > 100 µM (inactive) in each case. Besides, the GI50 in the assay with COLO 205, in the assay on NCI-H226, in the assay with ACHN, with MDA-N, in the assay with LOX IMVI and in the assay with Hs-578T was > 100 µM (inactive) throughout. Further, the GI50 with MOLT-4 was > 100 µM (inactive).

`C/C(=N/OC(=O)c1cccc2c(=O)c3ccccc3[nH]c12)[C@H]1CC[C@H]2[C@@H]3CCC4=C/C(=N/OC(=O)c5cccc6c(=O)c7ccccc7[nH]c56)CC[C@]4(C)[C@H]3CC[C@]12C`: the GI50 in the assay with SF-268 was 17 µM (inactive); in the assay with OVCAR-8 it was 15.7 µM (inactive); with MCF7, 11.2 µM (inactive); in the assay with TK-10, 17.8 µM (inactive); in the assay with A549 it was 25.6 µM (inactive); with IGROV-1 it was 14.4 µM (inactive). Also, the GI50 in the assay with HOP-62 was 24.8 µM (inactive); with NCI-H23 it was 15.5 µM (inactive); in the assay with SN12C it was 14.7 µM (inactive); in the assay with U-251, 15.8 µM (inactive); in the assay on OVCAR-5, 17.4 µM (inactive); with SK-MEL-5, 13.1 µM (inactive). Moreover, the GI50 with COLO 205 was 15.8 µM (inactive); with NCI-H226, 20 µM (inactive); in the assay with ACHN it was 16 µM (inactive); with MDA-N, 14.1 µM (inactive); in the assay on LOX IMVI it was 12.9 µM (inactive); in the assay with Hs-578T, 27.7 µM (inactive). The GI50 in the assay on MOLT-4 was 10.4 µM (inactive).

As for `CC(C)(C)OC(=O)N[C@H]1CCN(C2CCCCC2)C1=O`, the GI50 in the assay with SF-268, with OVCAR-8, in the assay with MCF7, in the assay with TK-10, in the assay with A549 and in the assay with IGROV-1 was > 100 µM (inactive) in each case. Further, the GI50 in the assay on HOP-62, in the assay on NCI-H23, with SN12C, in the assay with U-251, in the assay with OVCAR-5 and in the assay with SK-MEL-5 was > 100 µM (inactive) throughout. In addition, the GI50 in the assay with COLO 205, with NCI-H226, in the assay on ACHN, with MDA-N, with LOX IMVI and with Hs-578T was > 100 µM (inactive) in each case. In the assay with MOLT-4, the GI50 is > 100 µM (inactive).

Turning to `O=C1C=CC(=O)c2c1cc1ccccc1c2O`, the GI50 in the assay with SF-268 is 8.24 µM (inactive); with OVCAR-8 it was 2.58 µM (inactive); in the assay on TK-10, 4.24 µM (inactive); in the assay on A549, 16.7 µM (inactive); in the assay on IGROV-1, 5.28 µM (inactive); in the assay on HOP-62 it was 16.7 µM (inactive). Moreover, the GI50 in the assay on NCI-H23 was 13 µM (inactive); in the assay with SN12C it was 12.3 µM (inactive); in the assay with U-251, 14 µM (inactive); in the assay on OVCAR-5 it was 18.4 µM (inactive); in the assay on SK-MEL-5, 12.1 µM (inactive); in the assay on RXF 393, 2.11 µM (inactive). Besides, the GI50 in the assay with COLO 205 was 2.4 µM (inactive); in the assay on NCI-H226, 20.1 µM (inactive); in the assay with ACHN it was 2.84 µM (inactive); in the assay with MDA-N, 5.26 µM (inactive); with LOX IMVI, 2.72 µM (inactive); with Hs-578T it was 8.22 µM (inactive). Besides, the GI50 in the assay with MOLT-4 was 0.387 µM (active).

`Cc1ccc(S(=O)(=O)N/N=C2/C3C(CC2(C)C)C2(C)CCCC3(C)C2O)cc1` (centres undefined): the GI50 in the assay with SF-268 was 30.5 µM (inactive); in the assay on OVCAR-8, 32.7 µM (inactive); in the assay with MCF7, 17.5 µM (inactive); with TK-10, 36 µM (inactive); with A549, 20 µM (inactive); in the assay on IGROV-1, 25 µM (inactive). Further, the GI50 was 30.1 µM (inactive) with HOP-62; 22.8 µM (inactive) in the assay on NCI-H23; 19.9 µM (inactive) in the assay on SN12C; 16.3 µM (inactive) in the assay with U-251; > 10 µM (inactive) in the assay with OVCAR-5; 15.5 µM (inactive) in the assay on SK-MEL-5. The GI50 with COLO 205 is 16 µM (inactive); with NCI-H226, 17 µM (inactive); in the assay with ACHN it was > 10 µM (inactive); with MDA-N it was 20.1 µM (inactive); with LOX IMVI, 13.4 µM (inactive); in the assay on Hs-578T it was 19 µM (inactive). Besides, the GI50 in the assay on MOLT-4 is 12.9 µM (inactive).

Take `O=C(O[C@@H](/C=C/c1ccccc1)P1(=O)N(Cc2ccccc2)[C@@H]2CCCC[C@H]2N1Cc1ccccc1)c1ccccc1`: the GI50 is 5.06 µM (inactive) in the assay on SF-268; 3.63 µM (inactive) in the assay on OVCAR-8; 3.59 µM (inactive) with MCF7; > 100 µM (inactive) in the assay on TK-10; 3.07 µM (inactive) with A549; 2.79 µM (inactive) with IGROV-1. For the same compound, the GI50 with HOP-62 is 6.79 µM (inactive); with NCI-H23, 2.64 µM (inactive); in the assay on SN12C, 3.18 µM (inactive); in the assay on U-251, 3.21 µM (inactive); with OVCAR-5 it was 4.86 µM (inactive); with SK-MEL-5, 1.99 µM (inactive). In addition, the GI50 is 2 µM (inactive) in the assay on COLO 205; 2.58 µM (inactive) with NCI-H226; 3.95 µM (inactive) in the assay with ACHN; 3.33 µM (inactive) with MDA-N; 3.15 µM (inactive) in the assay on LOX IMVI; 8.89 µM (inactive) in the assay with Hs-578T.

In the case of `Cc1nn(C(=O)Cc2ccccc2)c2c1C(c1ccc(O)cc1O)SC(=N)N2` (centres undefined), the GI50 with SF-268, with OVCAR-8, in the assay on MCF7, in the assay with TK-10, with A549 and in the assay with IGROV-1 was > 100 µM (inactive) in each case. Besides, the GI50 with HOP-62, with NCI-H23, in the assay with SN12C, with SK-MEL-5, with COLO 205 and in the assay with NCI-H226 was > 100 µM (inactive) each time. Besides, the GI50 in the assay on ACHN, in the assay with MDA-N, in the assay on LOX IMVI, in the assay with Hs-578T and in the assay on MOLT-4 was > 100 µM (inactive) in each case.

The term GI50 denotes the concentration at which growth is held to half of that of the control.
